As usually defined, the DC50 is the concentration at which degradation of the target reaches its halfway point. In general, Dmax refers to the greatest extent of degradation seen. A word on the IC50: it is the point on the concentration scale where inhibition reaches its midpoint. Low readings indicate inhibition by little substance, high ones a need for much substance.

Consider 16 compounds from patent publication US12234223B2, “Phthalazinone compound, and preparation method therefor and medical use thereof” (SHANGHAI JEMINCARE PHARMACEUTICALS CO., LTD, priority 2020, dated 2025).

One assay has as its target T1, Androgen receptor (Homo sapiens, UniProt P10275).
T1 construct: Dmax: a maximum degradation degree of AR in VCaP cells; endogenous in cells; host or cells: VCaP cells
T1 sequence (P10275 1-920): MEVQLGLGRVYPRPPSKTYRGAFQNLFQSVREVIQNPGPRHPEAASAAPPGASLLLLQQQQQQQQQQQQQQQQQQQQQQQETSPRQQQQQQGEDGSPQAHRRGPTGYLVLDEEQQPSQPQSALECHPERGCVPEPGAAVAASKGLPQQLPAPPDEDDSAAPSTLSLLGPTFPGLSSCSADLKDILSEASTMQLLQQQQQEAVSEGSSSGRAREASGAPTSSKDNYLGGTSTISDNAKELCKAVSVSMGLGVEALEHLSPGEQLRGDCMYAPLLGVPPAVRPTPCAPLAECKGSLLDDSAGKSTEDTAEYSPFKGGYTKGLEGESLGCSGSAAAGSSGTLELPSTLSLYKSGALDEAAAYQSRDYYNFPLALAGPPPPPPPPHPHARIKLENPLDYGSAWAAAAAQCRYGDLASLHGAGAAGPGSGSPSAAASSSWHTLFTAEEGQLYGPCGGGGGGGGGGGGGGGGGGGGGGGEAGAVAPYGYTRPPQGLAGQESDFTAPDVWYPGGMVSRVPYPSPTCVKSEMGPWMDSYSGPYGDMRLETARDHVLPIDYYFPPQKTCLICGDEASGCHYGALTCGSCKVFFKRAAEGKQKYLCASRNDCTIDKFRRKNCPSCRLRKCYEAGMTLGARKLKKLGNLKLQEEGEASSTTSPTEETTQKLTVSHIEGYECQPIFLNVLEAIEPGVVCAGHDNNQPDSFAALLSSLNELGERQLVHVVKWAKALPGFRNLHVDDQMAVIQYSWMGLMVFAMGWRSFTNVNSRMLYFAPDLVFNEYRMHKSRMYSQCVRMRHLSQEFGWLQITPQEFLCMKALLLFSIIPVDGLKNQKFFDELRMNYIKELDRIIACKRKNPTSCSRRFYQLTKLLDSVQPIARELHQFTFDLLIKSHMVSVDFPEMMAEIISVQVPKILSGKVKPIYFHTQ
The assay can be described thus: Androgen receptor In-Cell-Western assay (AR degradation in VCaP cells). Format: cell-based. Conditions: 24 hours treatment; for DC50: concentration for half the maximum degradation degree of AR in VCaP cells; for Dmax: maximum degradation degree of AR in VCaP cells. As to the method: This assay evaluated compound performance in VCap cells. An intracellular androgen receptor was assayed by In-Cell-Western according to the assay procedure described below.
In a 96-well cell culture plate (Corning 3599) pretreated by poly-D-Lysin, Vcap cells were seeded to a Vcap cell assay medium [phenol red containing DMEM (Gibco Cat. No.: 11995065); fetal bovine serum FBS (Gibco Cat. No.: 10099141C)] at a volume of 100 μL/well and a cell density of 50,000 cells/well. Cells were cultured for at least two days. • 1. First, cells were treated with a compound. The compound was subjected to a gradient dilution by using DMSO and a cell culture medium, so that DMSO contained in the cell culture plate was diluted to 0.5%: a polypropylene plate was used according to the following protocol: • (1) (i) A 200× stock solution plate was prepared in DMSO; (ii) a 10 mM stock solution was diluted at 1:4 (10 μL stock solution+40 μL DMSO=2000 uM) with DMSO to enter row 2; (iii) a 1:4 (10 μL protac+40 μL DMSO) gradient dilution was performed from row 2 to row 9, row 1 was reserved for a 2000 uM reference compound and row 10 was reserved for DMSO. (iv) There were 8 concentrations (the final concentrations on the 200× plate was 2000 uM, 400 uM, 80 uM, etc.) in total. (2) (i) A 3× stock solution was prepared in the medium; (ii) 3 μL of the 200× stock solution was transferred to 197 μL of the medium (by a 12-channel pipette, from row 1 to row 10), i.e. a 3× stock solution plate. (iii) Uniform mixing was performed for the stock solution plate. (3) (i) The medium of Vcap cells was replaced with a fresh medium, with the medium volume of 100 μL. (ii) The uniformly-mixed 3× stock solution was transferred to the cell culture plate (by the 12-channel pipette, 50 μL of the stock solution was transferred from row 1 to row 10). (iii) The cells were cultured for 24 hours. • 2. The expression level of the intracellular androgen receptor after compound treatment was detected, and assay was performed according to the following method. • (1) (i) An equal volume of 8% paraformaldehyde was added to the cell culture plate for cell fixation. A fixative solution in the cell plate was discarded, and the cell plate was washed three times with PBS. (ii) A Triton solution was prepared (the stock solution was diluted at 1:1000). The solution in the cell plate was discarded, and a volume of 200 μL of a Triton diluent was added to each well. (iii) A 2× blocking solution was prepared (a 10× blocking stock solution was diluted at 1:4). The solution in the cell plate was discarded, and a volume of 100 μL of the 2× blocking solution was added to each well. (iv) A primary antibody solution (Androgen receptor Rabbit mAb, Cell Signaling Technology Cat. No.: 5153; 1:1000 dilution) was prepared. The solution in the cell plate was discarded, a volume of 100 μL of a primary antibody diluent was added to each well, and incubation was performed at 4 degrees overnight. (v) The primary antibody solution was discarded, and the cell plate was washed with 1× Wash buffer (Wash buffer in the present application means a washing buffer solution). (vi) A secondary antibody solution (Goat anti Rabbit IgG (H+L) Secondary Antibody, HRP, Thermo Cat. No.: 31460; 1:5000 dilution) was prepared, and a volume of 100 μL of a secondary antibody diluent was added to each well for incubation. (vii) The secondary antibody solution in the cell plate was discarded, and the cell plate was washed with 1× Wash buffer. (viii) A TMB chromogenic solution (BD Cat. No.: 550534) was prepared, and a volume of 100 μL of the chromogenic solution was added to each well. (ix) A volume of 50 μL of a stop solution (BD Cat. No.: 550534) was added to each well. (x) Absorption values at OD 450 nm and 570 nm were read by EnVision. (2) (i) Normalized analysis was performed for the number of cells in each well. The solution in the cell plate was discarded, and the cell plate was washed three times with wash buffer. […]

In a further assay the test system is VCaP cells. The assay can be described thus: Inhibitory effect on VCaP cell proliferation (Cell Titer Glo). It is filed as cell-based. Conditions: Homo sapiens, 144 h; for IC50: VCaP cells, 5% FBS and 0.1 nM R1881, 6 days; for Emax: maximum degree of VCaP cell proliferation inhibition, 6 days. The procedure:
A tumor cell line Vcap (ATCC Cat. No. CRL-2876) was respectively cultured with DMEM (Gibco Cat. No. 11965-092) medium containing 10% FBS (Gibco Cat. No. 10099-141C). During testing, Vcap cells were replaced with a DMEM culture fluid containing 5% FBS and 0.1 nM R1881 (Sigma Cat. No. R0908). The assay method was as follows:
Vcap cells were seeded to a 384-well plate (Perkin Elmer Cat. No. 6007460) at a cell density of 1200 cells/well and a volume of 20 μL/well; after the cells were incubated overnight in a carbon dioxide incubator (Thermo), the prepared compound solutions with different concentrations were added at a volume of 5 μL/well; meanwhile, a corresponding solvent was provided as a control; after the cells were continuously incubated in the incubator for 6 days, the cell plate and the contents thereof were equilibrated to room temperature; 25 μL of a Cell Titer Glor (Promega Cat. No. G7573) reagent was added to each well; after vibration and uniform mixing, incubation in the dark was performed for 10-30 minutes, and a signal value was detected with Envision microplate reader (PerkinElmer).
A percentage inhibition rate of compound-treated wells was calculated through solvent control wells on the plate, GraphPad prism was used to fit the percentage inhibition rate data corresponding to different concentrations, and IC50 value was calculated by a 4-parameter nonlinear logistic formula.
Emax: a maximum degree of VCaP cell proliferation inhibition. IC50: a compound concentration required to achieve half the maximum degree of VCaP cell proliferation inhibition.
(ATP-based viability assays read luminescence as a measure of living cells.)

`CC1(C)[C@H](NC(=O)c2cnc(N3CCC(CN4CCN(c5ccc6c(=O)n(C7CCC(=O)NC7=O)ncc6c5)CC4)CC3)nc2)C(C)(C)[C@H]1Oc1ccc(C#N)c(Cl)c1` (stereo partly drawn) [Compound 2]: on Androgen receptor, the DC50 was 5.3 nM and the Dmax was found to be 114%. Moreover, in the assay on VCaP cells, the IC50 amounted to 11 nM and the Emax worked out at 60%.
Turning to `CC1(C)[C@H](NC(=O)c2ccc(N3CCC(CN4CCN(c5ccc6c(=O)n(C7CCC(=O)NC7=O)ncc6c5)CC4)CC3)cc2)C(C)(C)[C@H]1Oc1ccc(C#N)c(C(F)(F)F)c1` (stereo partly drawn) [Compound 3], on Androgen receptor, the DC50 amounted to 12 nM and the Dmax worked out at 104%.
As to `CC1(C)[C@H](NC(=O)c2ccc(N3CCC(CN4CCN(c5ccc6c(=O)n(C7CCC(=O)NC7=O)ncc6c5)CC4)CC3)nc2)C(C)(C)[C@H]1Oc1ccc(C#N)c(Cl)c1` (stereo partly drawn) [Compound 4], at Androgen receptor, the half-maximal degradation concentration (DC50) turned out to be 6.8 nM and the Dmax is 98%. In addition, in the assay on VCaP cells, inhibition was half-maximal at 33 nM (IC50) and the Emax was found to be 69%.
For `CC1(C)[C@H](NC(=O)c2ccc(N3CCC(CN4CCN(c5ccc6c(=O)n(C7CCC(=O)NC7=O)ncc6c5)CC4)CC3)c(F)c2)C(C)(C)[C@H]1Oc1ccc(C#N)c(Cl)c1` (stereo partly drawn) [Compound 5] the same measures were 8.4 nM, 105%, 37 nM and 62%.
For `Cc1cc(O[C@H]2C(C)(C)[C@H](NC(=O)c3ccc(N4CCC(CN5CCN(c6ccc7c(=O)n(C8CCC(=O)NC8=O)ncc7c6)CC5)CC4)cc3)C2(C)C)ccc1C#N` (stereo partly drawn) [Compound 7], at Androgen receptor, half-maximal degradation (DC50) was put at 15 nM and the Dmax is 92%.
`CC1(C)C(NC(=O)c2ccc(N3CCC(CN4CCN(c5ccc6c(=O)n(C7CCC(=O)NC7=O)ncc6c5)CC4)CC3)nn2)C(C)(C)C1Oc1ccc(C#N)c(Cl)c1` (stereo not drawn) [Compound 8]: at Androgen receptor, the 50% degradation concentration (DC50) turned out to be 8.9 nM and the Dmax stood at 75%.
The corresponding values for `CC1(C)[C@H](NC(=O)c2cnc(N3CCC(CN4CCN(c5ccc6c(=O)n(C7CCC(=O)NC7=O)ncc6c5)CC4)CC3)cn2)C(C)(C)[C@H]1Oc1ccc(C#N)c(Cl)c1` (stereo partly drawn) [Compound 10] are 35 nM and 87%.
`CC1(C)[C@H](NC(=O)c2ccc(N3CCC(CN4CCN(c5ccc6cnn(C7CCC(=O)NC7=O)c(=O)c6c5)CC4)CC3)cc2)C(C)(C)[C@H]1Oc1ccc(C#N)c(Cl)c1` (stereo partly drawn) [Compound 11]: on Androgen receptor, the 50% degradation concentration (DC50) stood at 38 nM and the Dmax came out at 80%.
For `N#Cc1ccc(O[C@H]2CC[C@H](NC(=O)c3ccc(N4CCC(CN5CCN(c6ccc7c(=O)n(C8CCC(=O)NC8=O)ncc7c6)CC5)CC4)cc3)CC2)cc1Cl` (stereo partly drawn) [Compound 13] the same measures were 9.6 nM and 94%.
Turning to `N#Cc1ccc(O[C@H]2CC[C@H](NC(=O)c3cnc(N4CCC(CN5CCN(c6ccc7c(=O)n(C8CCC(=O)NC8=O)ncc7c6)CC5)CC4)nc3)CC2)cc1Cl` (stereo partly drawn) [Compound 14], at Androgen receptor, the DC50 was 11 nM and the Dmax turned out to be 91%. For the same compound, in the assay with VCaP cells, the 50% inhibitory concentration (IC50) was determined as 20 nM and the Emax amounted to 61%.
Turning to `N#Cc1ccc(O[C@H]2CC[C@H](NC(=O)c3ccc(N4CC(CN5CCN(c6ccc7c(=O)n(C8CCC(=O)NC8=O)ncc7c6)CC5)C4)cc3)CC2)cc1Cl` (stereo partly drawn) [Compound 15], on Androgen receptor, half-maximal degradation (DC50) was put at 16 nM and the Dmax was 84%.
As for `CC1(C)[C@H](NC(=O)c2ccc(N3CCC(CN4CCN(c5ccc6c(=O)n(C7CCC(=O)NC7=O)ncc6c5)CC4)C3)cc2)C(C)(C)[C@H]1Oc1ccc(C#N)c(Cl)c1` (stereo partly drawn) [Compound 16], on Androgen receptor, half-maximal degradation (DC50) was put at 5.7 nM and the Dmax turned out to be 92%.
As for `CC1(C)[C@H](NC(=O)c2ccc(N3CCC(CN4CC5CC4CN5c4ccc5c(=O)n(C6CCC(=O)NC6=O)ncc5c4)CC3)cc2)C(C)(C)[C@H]1Oc1ccc(C#N)c(Cl)c1` (stereo partly drawn) [Compound 17], at Androgen receptor, the DC50 was found to be 6.9 nM and the Dmax worked out at 88%.
`CC1(C)[C@H](NC(=O)c2ccc(N3CC(CN4CCN(c5ccc6c(=O)n(C7CCC(=O)NC7=O)ncc6c5)CC4)C3)cc2)C(C)(C)[C@H]1Oc1ccc(C#N)c(Cl)c1` (stereo partly drawn) [Compound 20]: in the assay on VCaP cells, it took 42 nM to reach half-maximal inhibition (IC50) and the Emax was 60%.
For `CC1(C)[C@H](NC(=O)c2cnc(N3CCC(CCN4CCN(c5ccc6c(=O)n(C7CCC(=O)NC7=O)ncc6c5)CC4)C3)nc2)C(C)(C)[C@H]1Oc1ccc(C#N)c(Cl)c1` (stereo partly drawn) [Compound 23], on Androgen receptor, half-maximal degradation (DC50) was put at 6.9 nM and the Dmax is 98%. Moreover, in the assay with VCaP cells, the IC50 was 20 nM and the Emax came out at 56%.
For `CC1(C)[C@H](NC(=O)c2ccc(N3CCC(CN4CCN(c5ccc6c(=O)n(C7CCC(=O)NC7=O)nc(C(F)(F)F)c6c5)CC4)CC3)cc2)C(C)(C)[C@H]1Oc1ccc(C#N)c(Cl)c1` (stereo partly drawn) [Compound 32], on Androgen receptor, the DC50 turned out to be 5.2 nM and the Dmax came to 145%.
